Data taken from ChEMBL document CHEMBL3046751, “Effects of Pyridalyl on ATP Concentrations in Cultured Sf9 Cells” (J Pestic Sci, 2005).
Active and inactive are the calls of the source. The calls are words filed in the database; no cut-off is given here.

How the values were obtained:
Assay type in all cases: functional, cell-based
[1] = tested on: Sf9; assay: Reduction of ATP level in Spodoptera frugiperda (fall armyworm) Sf9 cells at 0.1 to 10 uM after 4 hr by luminescent cell viability assay
[2] = tested on: Sf9; assay: Reduction of ATP level in Spodoptera frugiperda (fall armyworm) Sf9 cells at 0.01 to 10 uM after 4 hr by luminescent cell viability assay
[3] = tested on: Sf9; assay: Reduction of ATP level in Spodoptera frugiperda (fall armyworm) Sf9 cells after 20 to 24 hr by luminescent cell viability assay
[4] = tested on: Sf9; assay: Reduction of ATP level in Spodoptera frugiperda (fall armyworm) Sf9 cells at 1 to 10 uM after 4 hr by luminescent cell viability assay
[5] = tested on: Sf9; assay: Reduction of ATP level in Spodoptera frugiperda (fall armyworm) Sf9 cells at 10 uM after 2 hr by luminescent cell viability assay
[6] = tested on: Sf9; assay: Reduction of ATP level in Spodoptera frugiperda (fall armyworm) Sf9 cells at 0.01 uM after 24 hr by luminescent cell viability assay
[7] = tested on: Sf9; assay: Reduction of ATP level in Spodoptera frugiperda (fall armyworm) Sf9 cells at 1 to 10 uM after 20 to 24 hr by luminescent cell viability assay
[8] = tested on: Sf9; assay: Cytotoxicity against Spodoptera frugiperda (fall armyworm) Sf9 cells at 0.01 uM
[9] = tested on: Sf9; assay: Reduction of ATP level in Spodoptera frugiperda (fall armyworm) Sf9 cells at 0.1 uM after 24 hr by luminescent cell viability assay
[10] = tested on: Sf9; assay: Reduction of ATP level in Spodoptera frugiperda (fall armyworm) Sf9 cells at 1 uM after 8 hr by luminescent cell viability assay
[11] = tested on: Sf9; assay: Increase of ATP level in Spodoptera frugiperda (fall armyworm) Sf9 cells at 10 uM after 6 to 24 hr by luminescent cell viability assay
[12] = tested on: Sf9; assay: Reduction of ATP level in Spodoptera frugiperda (fall armyworm) Sf9 cells at 0.1 to 1 uM after 6 to 24 hr by luminescent cell viability assay
[13] = tested on: Sf9; assay: Reduction of ATP level in Spodoptera frugiperda (fall armyworm) Sf9 cells at 10 uM after 6 to 24 hr by luminescent cell viability assay
[14] = tested on: Sf9; assay: Reduction of ATP level in Spodoptera frugiperda (fall armyworm) Sf9 cells at 10 uM after 4 hr by luminescent cell viability assay

SMILES: C=C(C)[C@H]1Cc2c(ccc3c2O[C@@H]2COc4cc(OC)c(OC)cc4[C@@H]2C3=O)O1
- Activity [1]: inactive

SMILES: Cc1nn(C)c(Oc2ccccc2)c1/C=N/OCc1ccc(C(=O)OC(C)(C)C)cc1
- Activity [2]: inactive

SMILES: N#CC(C#N)=NNc1ccccc1Cl
- Activity [3]: Dose-dependent effect
- Activity [1]: Active

SMILES: CCOCn1c(-c2ccc(Cl)cc2)c(C#N)c(Br)c1C(F)(F)F
- Activity [3]: Dose-dependent effect
- Activity [4]: Active

SMILES: FC(F)(F)c1ccc(OCCCOc2c(Cl)cc(OCC=C(Cl)Cl)cc2Cl)nc1
- Activity [3]: Dose-dependent effect
- Activity [5]: Active
- Activity [6]: inactive
- Activity [7]: Active
- Activity [8]: inactive
- Activity [9]: Active
- Activity [10]: Active

SMILES: COc1ccc(C[C@H]2NC[C@H](O)[C@H]2OC(C)=O)cc1
- Activity [11]: Active
- Activity [12]: inactive

SMILES: O=c1[nH]cc(F)c(=O)[nH]1
- Activity [13]: inactive

SMILES: CCCCCCCCCCCCC1=C(OC(C)=O)C(=O)c2ccccc2C1=O
- Activity [3]: Dose-dependent effect
- Activity [14]: Active
